Test results reported in US9174960B2, “Compounds useful against kinetoplastideae parasites” (CENTRE NATIONAL DE LA RECHERCHE SCIENTIFIQUE, priority 2009, dated 2015).
Where a name gives a salt, the structure may show the parent alone. Read-outs that look alike come from different tables or passages of the source.

Experiments:
[1] = test system: Primary peritoneal mouse macrophages; experiment: Toxicity against mouse macrophages (host cells of the L. infantum assay); type: cell-based; conditions: mouse macrophages (L. inf)
Method: (§1) The Leishmania infantum MHOM/MA (BE)/67 strain is used. The strain is maintained in the Golden Hamster and spleen amastigotes are collected for preparing infection inocula. Primary peritoneal mouse macrophages are used as host cell and are collected 2 d after peritoneal stimulation with a 2% potato starch suspension. […] After 5 d incubation, parasite burdens (mean number of amastigotes/macrophage) are microscopically assessed after Giemsa staining.

[2] = test system: MRC-5SV2 cells; experiment: Cytotoxicity against human cell lines (resazurin); conditions: human lung fibroblasts MRC-5
[3] = test system: Trypanosoma cruzi, Tulahuen CL, β galactosidase strain (nifurtimox-sensitive); experiment: In vitro Trypanosoma cruzi assay on MRC-5 cells (CPRG); type: cell-based; conditions: for trypanocidal activity against T. cruzi (in words): in vitro
Method: Trypanosoma cruzi, Tulahuen CL, β galactosidase strain (nifurtimox-sensitive) is used. The strain is maintained on MRC-5SV2 (human lung fibroblast) cells in MEM medium, supplemented with […] L-glutamine, 16.5 mM NaHCO3, and 5% FCSi. All cultures and assays are conducted at 37° C. under an atmosphere of 5% CO2. Assays are performed in sterile 96-well microtiter plates, each well containing 10 μl of the watery compound dilutions together with 190 μl of MRC-5 cell/parasite inoculum (2·10^4 cells/ml±2·10^5 parasites/ml). Parasite growth is compared to untreated-infected controls (100% growth) and non-infected controls (0% growth) after 7 d incubation. Parasite burdens are assessed after adding the substrate CPRG (chlorophenolred β-D-galactopyranoside): 50 μl/well of a stock solution containing 15.2 mg CPRG+250 μl Nonidet in 100 ml PBS. The change in color is measured spectrophotometrically at 540 nm after 4 h incubation at 37° C.

[4] = test system: Trypanosoma brucei brucei Squib 427 strain (suramin-sensitive); experiment: In vitro Trypanosoma brucei brucei growth assay (resazurin); type: cell-based
Method: The strain is maintained in Hirumi (HMI-9) medium, supplemented with 10% FCSi. […] After 3 d incubation, parasite growth is assessed fluorimetrically after addition of resazurin. After 24 h at 37° C., fluorescence is measured (λex 550 nm, λem 590 nm).

[5] = test system: promastigotes of L. major; conditions: cited from earlier work
[6] = test system: procyclic forms of T. b. brucei; conditions: cited from earlier work
[7] = test system: bloodstream forms of T. brucei; conditions: cited from earlier work
[8] = Stability of the compound (HPLC analysis, light); type: physicochemical
[9] = test system: Trypanosoma brucei brucei CMP (fast strain); experiment: Trypanocidal activity in vivo in T. brucei-infected mice; conditions: T. brucei-infected Swiss mice
Method: Animals: Swiss mice (female 18-20 g, Janvier, Le Genest St Isle, France) are randomly allocated to groups of 6 animals each. Drinking water and food are available ad libitum throughout the experiment (except when the treatment is given by oral route; in this condition, the treatment is given after 12 h of animal fasting).
Parasite: Trypanosoma brucei brucei CMP (fast strain) is maintained in the laboratory by mechanical intraperitoneal sub-passage every three days in Swiss mice. The infection inoculum is prepared by taking blood collected from a clinically ill donor mouse and diluted in pH 7.2 PBS to obtain an infection inoculum of about 10^5 trypanosomes/ml suspension. Mice are infected by intraperitoneal injection of 0.1 ml of parasite suspension (=10^4 parasites).
Test substances: The reference compound is melarsoprol.
Test compounds are analytically pure compounds.
Formulations: The compounds are formulated in 100% DMSO. Clear solutions should be obtained. The stock solution is divided in aliquots and stored at −20° C. until use. Aliquots are thawed immediately before treatment. The reference compound melarsoprol is formulated in PBS and stored at −20° C.
Treatment: The first dosing with the test compounds was given approx. 3 hours after artificial infection. • Melarsoprol (Arsobal®): 6 infected mice intraperitoneally treated with 1 mg/kg×4 consecutive days. • Test compounds: 6 infected mice per AMTD×1-5 consecutive days. • Controls: 10 infected mice receiving vehicle only (0.1-0.2 ml) Evaluation Parameters:
Parasitemia was checked microscopically from blood collected at the tail of the mice 2 days after the treatment, and every two days until 30 days post-treatment in case of survival. The trypanocidal activity was evaluated by the mean survival time of treated mice for each dose comparatively to survival time of mice treated with the vehicle alone. Treatment was considered to be successful when the mean survival time exceeds 30 days and the mice remains aparasitemic. […] Cure rate are expressed as percentages.

[10] = test system: Leishmania infantum MHOM/MA (BE)/67 strain; experiment: In vitro Leishmania infantum assay, intracellular amastigotes in primary peritoneal mouse macrophages; type: cell-based; conditions: L. infantum amastigotes in mouse macrophages, 5 d incubation, reference drug, read-out: IC50 (50% inhibitory concentration), reduction in parasite burden
Method: as §1

[11] = test system: human African trypanosomiasis (HAT); conditions: cited from earlier work
[12] = one single dose at 50 mg/kg i.p.

| SMILES | toxicity against mammalian (MRC-5) cells (in words) [2] | trypanocidal activity against T. cruzi (in words) [3] | trypanocidal activity against T. brucei (in words) [4] | further results |
| --- | --- | --- | --- | --- |
| O=C1C[C@H](c2ccncc2)S[C@@H](c2ccncc2)C1 (relative stereo) [TG003A23, trans-2,6-di(pyridin-4-yl)dihydro-2H-thiopyran-4(3H)-one] | much less cytotoxicity |  |  | toxicity against mouse macrophages (in words) [1]: much less cytotoxicity |
| CN1C(c2ccncc2)CC(=O)CC1c1ccncc1 (centres unmarked) [BJ591, 1-Methyl-2,6-di(pyridine-4-yl)piperidin-4-one] | much less cytotoxicity |  |  | toxicity against mouse macrophages (in words) [1]: much less cytotoxicity |
| O=C(/C=C/c1ccccn1)/C=C/c1ccccn1 [BJ621] | high cytotoxicity | excellent trypanocidal activity | excellent trypanocidal activity |  |
| COc1cc(/C=C/C(=O)CC(=O)/C=C/c2ccc(O)c(OC)c2)ccc1O [Curcumin] |  |  |  | LD50 [5]: 37.6 ± 3.5 µM; LD50 [6]: 46.5 ± 4.9 µM; cytotoxicity against bloodstream forms of T. brucei relative to procyclic forms [7]: 10 times |
| CN1C(c2ccccc2)CC(=O)CC1c1ccccc1 (stereo not drawn) [NW249.1, meso-1-Methyl-2,6-diphenyl-piperidin-4-one] | low toxicity |  | high trypanocidal activity | toxicity against mouse macrophages (in words) [1]: without any toxicity |
| O=C(/C=C/c1ccc(OC(F)(F)F)cc1)/C=C/c1ccc(OC(F)(F)F)cc1 [NW254, (1E,4E)-1,5-Bis(4-trifluoromethoxy-phenyl)-penta-1,4-dien-3-one] | without any toxicity | excellent antitrypanosomal activities | excellent antitrypanosomal activities | toxicity against mouse macrophages (in words) [1]: without any toxicity |
| O=C(/C=C/c1ccc(C(F)(F)F)cc1)/C=C/c1ccc(C(F)(F)F)cc1 [NW267, (1E,4E)-1,5-Bis(4-trifluoromethyl-phenyl)-penta-1,4-dien-3-one] | without any toxicity | excellent antitrypanosomal activities | excellent antitrypanosomal activities | toxicity against mouse macrophages (in words) [1]: without any toxicity |
| COc1cc(/C=C/C(=O)/C=C/c2ccc(O)c(OC)c2)ccc1O [NW300, (1E,4E)-1,5-Bis(4-hydroxy-3-methoxyphenyl)penta-1,4-dien-3-one] | very high cytotoxicity |  | excellent antitrypanosomal activity |  |
| N#Cc1ccc(/C=C/C(=O)/C=C/c2ccc(C#N)cc2)cc1 [NW307.2, (1E,4E)-1,5-Bis(4-cyanophenyl)penta-1,4-dien-3-one] | without any cytotoxicity | excellent activity | excellent activity |  |
| O=C(/C=C/c1ccc(O)c(OC(F)(F)F)c1)/C=C/c1ccc(O)c(OC(F)(F)F)c1 [NW317, (1E,4E)-1,5-Bis(4-hydroxy-3-(trifluoromethoxy)phenyl)penta-1,4-dien-3-one] |  |  |  | light sensitivity (in words) [8]: Light-sensitive |
| O=C(/C=C/c1ccncc1)/C=C/c1ccncc1 [NW319, (1E,4E)-1,5-Di(pyridin-4-yl)penta-1,4-dien-3-one Dihydrochloride] | high cytotoxicity | excellent trypanocidal activity | excellent trypanocidal activity | parasitemia [9, 12]: 0%; parasitemia ([9]; two doses over a two days-period, 12.5 mg/kg i.p.): 0% |
| O=C(/C=C/c1cccnc1)/C=C/c1cccnc1 [NW321, (1E,4E)-1,5-Di(pyridin-3-yl)penta-1,4-dien-3-one Dihydrochloride] | high cytotoxicity | excellent trypanocidal activity | excellent trypanocidal activity | parasitemia [9, 12]: 0% |
| COc1cc(Br)c(O)c(/C=C/C(=O)/C=C/c2cc(OC)cc(Br)c2O)c1 [NW326.4, (1E,4E)-1,5-Bis(3-bromo-2-hydroxy-5-methoxyphenyl)penta-1,4-dien-3-one] |  |  |  | decomposition ([8]; HPLC analysis, after 5 days): 60% |
| COc1ccc(O)c(/C=C/C(=O)/C=C/c2cc(OC)ccc2O)c1 [NW327.2, (1E,4E)-1,5-Bis(2-hydroxy-5-methoxyphenyl)penta-1,4-dien-3-one] |  |  |  | parasitemia [9, 12]: 0%; parasitemia ([9]; two doses over a two days-period, 25 mg/kg i.p.): 0% |
| CC1CS(=O)(=O)CCN1/N=C/c1ccc([N+](=O)[O-])o1 (centres unmarked) [Nifurtimox, reference compound] |  |  |  | IC50 ([3]; Trypanosoma cruzi, MRC5, 168 h, T. cruzi Tulahuen CL on MRC-5 cells, 7 d incubation, reference drug, read-out: IC50, reduction in parasite burdens): 0.845 ± 0.2 µM |
| O=C(O)[C@@H]1[O][Sb](=[O])([O][Sb]2(=[O])[O][C@H]([C@H](O)CO)[C@H](O)[C@H](C(=O)O)[O]2)[O][C@H]([C@H](O)CO)[C@@H]1O.[Na+].[Na+].[Na+] (some centres unmarked) [Pentostam] |  |  |  | IC50 [10]: 6.8 ± 0.9 µM |
| Nc1nc(N)nc(Nc2ccc([As]3SCC(CO)S3)cc2)n1 (centres unmarked) [melarsoprol] |  |  |  | failure rate after treatment ([11]; late stage case of human African trypanosomiasis): under 7%; overall mortality due to the drug itself ([11]; therapy of late-stage encephalitic disease, patients): more than 5% |
| CCCCCCCCCCCCCCCCOP(=O)([O-])OCC[N+](C)(C)C [miltefosine] |  |  |  | IC50 ([10]; Leishmania infantum, Macrophage, 120 h): 5.2 ± 0.8 µM |
